Laboratory results: patent EP2758401B1 (Bayer Intellectual Property GmbH, priority 2011, dated 2013)
pIC50: −log10 of the molar value.

Legend:
[1] = biological target: T1, MKNK1 (Homo sapiens, UniProt Q9BUB5, T385D); assay: MKNK1 kinase high ATP assay (TR-FRET); assay type: biochemical; conditions: ATP final conc. 2 mM; 15 min pre-incubation; reaction time 30 min at 22°C
T1 construct: GST (N); purchased Carna Biosciences 02-145; host or cells: insect cells (baculovirus expression system)
Procedure: MKNK1-inhibitory activity at high ATP of compounds of the present invention after their preincubation with MKNK1 was quantified employing the TR-FRET-based MKNK1 high ATP assay as described in the following paragraphs.
As substrate for the kinase reaction the biotinylated peptide biotin-Ahx-[…] (C-terminus in amide form) was used, which can be purchased e.g. from the company Biosyntan (Berlin-Buch, Germany).
For the assay 50 nL of a 100fold concentrated solution of the test compound in DMSO was pipetted into a black low volume 384well microtiter plate (Greiner Bio-One, Frickenhausen, Germany), 2 µL of a solution of MKNK1 in aqueous assay buffer [50 mM HEPES pH 7.5, 5 mM magnesium chloride, 1.0 mM dithiothreitol, 0.005% (v/v) Nonidet-P40 (Sigma)] was added and the mixture was incubated for 15 min at 22°C to allow pre-binding of the test compounds to the enzyme before the start of the kinase reaction. Then the kinase reaction was started by the addition of 3 µL of a solution of adenosine-tri-phosphate (ATP, 3.3 mM => final conc. in the 5 µL assay volume is 2 mM) and substrate (0.1 µM => final conc. in the 5 µL assay volume is 0.06 µM) in assay buffer and the resulting mixture was incubated for a reaction time of 30 min at 22°C. The concentration of MKNK1 was adjusted depending of the activity of the enzyme lot and was chosen appropriate to have the assay in the linear range, typical concentrations were in the range of 0.003 µg/mL. The reaction was stopped by the addition of 5 µL of a solution of TR-FRET detection reagents (5 nM streptavidine-XL665 [Cisbio Bioassays, Codolet, France] and 1 nM anti-ribosomal protein S6 (pSer236)-antibody from Invitrogen [# 44921G] and 1 nM LANCE EU-W1024 labeled ProteinG [Perkin-Elmer, product no. AD0071]) in an aqueous EDTA-solution (100 mM EDTA, 0.1 % (w/v) bovine serum albumin in 50 mM HEPES pH 7.5).
(§1) The resulting mixture was incubated for 1 h at 22°C to allow the formation of complex between the phosphorylated biotinylated peptide and the detection reagents. Subsequently the amount of phosphorylated substrate was evaluated by measurement of the resonance energy transfer from the Eu-chelate to the streptavidine-XL. Therefore, the fluorescence emissions at 620 nm and 665 nm after excitation at 350 nm were measured in a TR-FRET reader, e.g. a Rubystar (BMG Labtechnologies, Offenburg, Germany) or a Viewlux (Perkin-Elmer). The ratio of the emissions at 665 nm and at […] was taken as the measure for the amount of phosphorylated substrate. The data were normalised (enzyme reaction without inhibitor = 0 % inhibition, all other assay components but no enzyme = 100 % inhibition).

[2] = biological target: T1, MKNK1; assay: MKNK1 kinase assay (TR-FRET); assay type: biochemical; conditions: ATP final conc. 10 µM; 15 min pre-incubation; reaction time 45 min at 22°C
Procedure: MKNK1-inhibitory activity of compounds of the present invention was quantified employing the MKNK1 TR-FRET assay as described in the following paragraphs.
As substrate for the kinase reaction the biotinylated peptide biotin-Ahx-[…] (C-terminus in amide form) was used which can be purchased e.g. form the company Biosyntan (Berlin-Buch, Germany).
For the assay 50 nL of a 100fold concentrated solution of the test compound in DMSO was pipetted into a black low volume 384well microtiter plate (Greiner Bio-One, Frickenhausen, Germany), 2 µL of a solution of MKNK1 in aqueous assay buffer [50 mM HEPES pH 7.5, 5 mM magnesium chloride, 1.0 mM dithiothreitol, 0.005% (v/v) Nonidet-P40 (Sigma)] was added and the mixture was incubated for 15 min at 22°C to allow pre-binding of the test compounds to the enzyme before the start of the kinase reaction. Then the kinase reaction was started by the addition of 3 µL of a solution of adenosine-tri-phosphate (ATP, 16.7 µM => final conc. in the 5 µL assay volume is 10 µM) and substrate (0.1 µM => final conc. in the 5 µL assay volume is 0.06 µM) in assay buffer and the resulting mixture was incubated for a reaction time of 45 min at 22°C.
as §1, with “inhibition). […] Table 1: MKNK1 IC50s” for “inhibition).”

T1 sequence (Q9BUB5 1-424 isoform Q9BUB5-2 T344D): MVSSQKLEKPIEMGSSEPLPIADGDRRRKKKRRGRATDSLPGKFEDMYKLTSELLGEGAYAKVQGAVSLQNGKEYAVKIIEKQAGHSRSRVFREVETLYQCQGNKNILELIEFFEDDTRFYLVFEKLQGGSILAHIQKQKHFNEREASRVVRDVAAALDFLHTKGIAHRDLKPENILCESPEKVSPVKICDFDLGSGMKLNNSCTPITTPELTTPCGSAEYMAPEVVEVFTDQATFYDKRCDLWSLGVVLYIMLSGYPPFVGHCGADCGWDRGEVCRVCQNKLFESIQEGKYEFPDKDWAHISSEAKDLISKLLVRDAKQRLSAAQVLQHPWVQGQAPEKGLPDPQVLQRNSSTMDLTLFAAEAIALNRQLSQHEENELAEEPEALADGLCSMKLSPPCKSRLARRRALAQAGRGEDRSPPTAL

SMILES | pIC50 [1] | pIC50 [2]
C[C@H](N)COc1ccc2ncc(-c3cc4c(F)cccc4o3)n2n1 [Example 45, (2S)-1-{[3-(4-Fluoro-1-benzofuran-2-yl)imidazo[1,2-b]pyridazin-6-yl]oxy}-propan-2-amine] | 7.15 | 7.77
N[C@H](COc1ccc2ncc(-c3cc4c(F)cccc4o3)n2n1)c1ccccc1 [Example 46, (1S)-2-{[3-(4-Fluoro-1-benzofuran-2-yl)imidazo[1,2-b]pyridazin-6-yl]oxy}-1-phenylethanamine] | 7.17 | 7.44
C[C@H](CN)Oc1ccc2ncc(-c3cc4cccc(F)c4o3)n2n1 [Example 48, (2R)-2-{[3-(7-Fluoro-1-benzofuran-2-yl)imidazo[1,2-b]pyridazin-6-yl]oxy}-propan-1-amine] | 6.94 | 7.15
Cc1ccc2oc(-c3cnc4ccc(O[C@H](C)CN)nn34)cc2c1 [Example 49] | 6.81 | 7.06
N[C@H](COc1ccc2ncc(-c3cc4ccccc4o3)n2n1)Cc1ccccc1 [Example 50, (2S)-1-{[3-(1-Benzofuran-2-yl)imidazo[1,2-b]pyridazin-6-yl]oxy}-3-phenyl-propan-2-amine] | 7.27 | 7.57
NC1(COc2ccc3ncc(-c4cc5ccccc5o4)n3n2)CC1 [Example 51, 1-({[3-(1-Benzofuran-2-yl)imidazo[1,2-b]pyridazin-6-yl]oxy}methyl)cyclo-propanamine] | 7.13 | 7.54
NCC(COc1ccc2ncc(-c3cc4ccccc4o3)n2n1)c1ccccc1 (centres unmarked) [Example 52, 3-{[3-(1-Benzofuran-2-yl)imidazo[1,2-b]pyridazin-6-yl]oxy}-2-phenylpropan-1-amine] | 7.52 | 7.77
